In patent US8889667B2 (Agios Pharmaceuticals, Inc, priority 2010, dated 2014):

Target: PKM2 (Homo sapiens, UniProt P14618)
Test: PKM2 Assay (activation, LDH-coupled, absorbance at 340 nm)
Assay type: biochemical
Conditions: Table 4
Method in brief: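 Read-out was the 340 nm NADH absorbance change at 25 °C in an LDH-coupled system (PEP 0.15 mM, NADH 180 μM, ADP 0.7 mM to initiate) in 50 mM Tris pH 7.5, 100 mM KCl, 5 mM MgCl2. PKM2 at 50 ng/well was first preincubated with compound for 30 min at 4 °C. Activation given as AC50.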

PKM2, sequence (P14618 whole entry): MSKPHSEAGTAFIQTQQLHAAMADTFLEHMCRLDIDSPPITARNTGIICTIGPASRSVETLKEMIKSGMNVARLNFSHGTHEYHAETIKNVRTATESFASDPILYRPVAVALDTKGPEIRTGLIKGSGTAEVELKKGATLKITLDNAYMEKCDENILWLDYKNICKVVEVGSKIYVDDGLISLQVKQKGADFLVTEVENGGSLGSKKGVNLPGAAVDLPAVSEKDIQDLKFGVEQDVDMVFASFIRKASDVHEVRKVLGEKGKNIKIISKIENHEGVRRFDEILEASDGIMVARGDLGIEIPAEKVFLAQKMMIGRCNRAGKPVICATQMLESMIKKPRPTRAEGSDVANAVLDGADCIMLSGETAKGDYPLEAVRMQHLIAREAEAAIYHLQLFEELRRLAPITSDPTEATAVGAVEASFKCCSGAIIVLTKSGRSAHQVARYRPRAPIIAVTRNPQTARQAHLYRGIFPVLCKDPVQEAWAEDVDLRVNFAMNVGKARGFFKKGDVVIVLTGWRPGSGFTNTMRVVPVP

Q: With `CC(c1ccc(F)cc1Cl)N1CCN(C(=O)c2ccc(NS(=O)(=O)c3cccc4cccnc34)cc2)[C@H](C)C1` (stereo partly drawn) [Compound 191, N-(4-((2R)-4-(1-(2-chloro-4-fluorophenyl)ethyl)-2-methylpiperazine-1-carbonyl)phenyl)quinoline-8-sulfonamide] as the molecule, how does the AC50 read?
A: Its AC50 is 100 to 500 nM.

Q: For `C[C@@H]1CN(C(=O)OCCC2CCCCC2)CCN1C(=O)c1ccc(NS(=O)(=O)c2cccc3cccnc23)cc1` [Compound 121, (R)-2-Cyclohexylethyl 3-methyl-4-(4-(quinoline-8-sulfonamido)benzoyl)piperazine-1-carboxylate], which AC50 is on record?
A: Its AC50 is 100 to 500 nM.

Q: `O=C(c1ccc(NS(=O)(=O)c2cccc3cccnc23)cc1)N1CCN(Cc2ccc(F)cc2)C[C@@H]1c1ccccc1` [Compound 165] was tested. Which AC50 did it give?
A: Its AC50 is under 100 nM.

Q: How did the AC50 turn out when `C[C@H]1CN(CC2CCCC2)CCN1C(=O)c1ccc(NS(=O)(=O)c2cccc3cccnc23)cc1` [Compound 140, (S)—N-(4-(4-(cyclopentylmethyl)-2-methylpiperazine-1-carbonyl)phenyl)quinoline-8-sulfonamide] was run?
A: Its AC50 is under 100 nM.

Q: Which AC50 does the source give for `C[C@@H]1CN(C(=O)c2ccc(NS(=O)(=O)c3cccc4cccnc34)cc2)CCN1C(=O)c1ccccn1` [Compound 102] here?
A: The AC50 was 100 to 500 nM.

Q: For `C[C@@H]1CN(C(=O)OC2CCOCC2)CCN1C(=O)c1ccc(NS(=O)(=O)c2cccc3cccnc23)cc1` [Compound 124, (R)-Tetrahydro-2H-pyran-4-yl-3-methyl-4-(4-(quinoline-8-sulfonamido)benzoyl)piperazine-1-carboxylate], which AC50 is on record?
A: The AC50 was 100 to 500 nM.

Q: Which AC50 does the source give for `C[C@@H]1CN(C(=O)OCC2CCCO2)CCN1C(=O)c1ccc(NS(=O)(=O)c2cccc3cccnc23)cc1` (stereo partly drawn) [Compound 128, (3R)-(Tetrahydrofuran-2-yl)methyl3-methyl-4-(4-(quinoline-8-sulfonamido)benzoyl)piperazine-1-carboxylate] here?
A: The AC50 was under 100 nM.

Q: `C[C@H]1CN(Cc2cc(F)c(F)cc2F)CCN1C(=O)c1ccc(NS(=O)(=O)c2cccc3cccnc23)cc1` [Compound 145, (S)—N-(4-(2-methyl-4-(2,4,5-trifluorobenzyl)piperazine-1-carbonyl)phenyl)quinoline-8-sulfonamide] was tested. Which AC50 did it give?
A: Its AC50 is under 100 nM.

Q: How did the AC50 turn out when `C[C@H]1CN(Cc2ccc(F)cc2)CCN1C(=O)c1ccc(NS(=O)(=O)c2cccc3cccnc23)cc1Cl` [Compound 184, (S)—N-(3-chloro-4-(4-(4-fluorobenzyl)-2-methylpiperazine-1-carbonyl)phenyl)quinoline-8-sulfonamide] was run?
A: The AC50 was 100 to 500 nM.

Q: `COc1cccc(CN2CCN(C(=O)c3ccc(NS(=O)(=O)c4cccc5cccnc45)cc3)[C@@H](C)C2)c1OC` [Compound 146, (S)—N-(4-(4-(2,3-dimethoxybenzyl)-2-methylpiperazine-1-carbonyl)phenyl)quinoline-8-sulfonamide] was tested. Which AC50 did it give?
A: The AC50 was 1000 to 20000 nM.

Q: With `CC(c1ccc(Cl)c(F)c1)N1CCN(C(=O)c2ccc(NS(=O)(=O)c3cccc4cccnc34)cc2)[C@@H](C)C1` (stereo partly drawn) [Compound 182] as the molecule, how does the AC50 read?
A: Its AC50 is 100 to 500 nM.

Q: Which AC50 does the source give for `O=C(c1ccc(NS(=O)(=O)c2cccc3cccnc23)cc1)N1CC2CCC(C1)N2Cc1cc(F)cc(F)c1` [Compound 218, N-(4-(8-(3,5-difluorobenzyl)-3,8-diazabicyclo[3.2.1]octane-3-carbonyl)phenyl)quinoline-8-sulfonamide] here?
A: Its AC50 is 100 to 500 nM.

Q: Which AC50 does the source give for `COc1cccc(CN2CCN(C(=O)c3ccc(NS(=O)(=O)c4cccc5cccnc45)cc3)[C@H](C)C2)c1OC` [Compound 130, (R)—N-(4-(4-(2,3-dimethoxybenzyl)-2-methylpiperazine-1-carbonyl)phenyl)quinoline-8-sulfonamide] here?
A: Its AC50 is under 100 nM.

Q: Which AC50 does the source give for `O=C(c1ccc(NS(=O)(=O)c2cccc3cccnc23)cc1)N1C2CCC1CN(Cc1ccc(F)cc1)C2` [Compound 226, N-(4-(3-(4-fluorobenzyl)-3,8-diazabicyclo[3.2.1]octane-8-carbonyl)phenyl)quinoline-8-sulfonamide] here?
A: The AC50 was under 100 nM.

Q: `C[C@H]1CN(Cc2ccc(Cl)c(F)c2)CCN1C(=O)c1ccc(NS(=O)(=O)c2cccc3cccnc23)cc1Cl` [Compound 185, (S)—N-(3-chloro-4-(4-(4-chloro-3-fluorobenzyl)-2-methylpiperazine-1-carbonyl)phenyl)quinoline-8-sulfonamide] was tested. Which AC50 did it give?
A: The AC50 was 500 to 1000 nM.

Q: For `CC1CN(Cc2c(F)cc(F)cc2F)CC(C)N1C(=O)c1ccc(NS(=O)(=O)c2cccc3cccnc23)cc1` (stereo not drawn) [Compound 202, N-(4-(2,6-dimethyl-4-(2,4,6-trifluorobenzyl)piperazine-1-carbonyl)phenyl)quinoline-8-sulfonamide], which AC50 is on record?
A: The AC50 was 100 to 500 nM.

Q: `CC1CN(Cc2cc(F)c(F)cc2F)CC(C)N1C(=O)c1ccc(NS(=O)(=O)c2cccc3cccnc23)cc1` (stereo not drawn) [Compound 203, N-(4-(2,6-dimethyl-4-(2,4,5-trifluorobenzyl)piperazine-1-carbonyl)phenyl)quinoline-8-sulfonamide] was tested. Which AC50 did it give?
A: Its AC50 is under 100 nM.

Same assay, conditions: Table 5

Q: `O=C(c1ccc(NS(=O)(=O)c2cccc3cccnc23)cc1Cl)N1CCN(Cc2ccc(F)cc2)CC1` [Compound 431, N-(3-chloro-4-(4-(4-fluorobenzyl)piperazine-1-carbonyl)phenyl)quinoline-8-sulfonamide] was tested. Which AC50 did it give?
A: Its AC50 is under 100 nM.

Q: Which AC50 does the source give for `O=C(c1ccc(NS(=O)(=O)c2cccc3cccnc23)cc1)N1CCN(C(=O)c2nccs2)CC1` [Compound 371, N-(4-(4-(thiazole-2-carbonyl)piperazine-1-carbonyl)phenyl)quinoline-8-sulfonamide] here?
A: Its AC50 is under 100 nM.

Q: Which AC50 does the source give for `CC(c1cc(F)cc(F)c1F)N1CCN(C(=O)c2ccc(NS(=O)(=O)c3cccc4cccnc34)cc2)CC1` (stereo not drawn) [Compound 396, N-(4-(4-(1-(2,3,5-trifluorophenyl)ethyl)piperazine-1-carbonyl)phenyl)quinoline-8-sulfonamide] here?
A: Its AC50 is under 100 nM.

Q: Which AC50 does the source give for `CC(C1CC1)N1CCN(C(=O)c2ccc(NS(=O)(=O)c3cccc4cccnc34)cc2)CC1` (stereo not drawn) [Compound 442, N-(4-(4-(1-cyclopropylethyl)piperazine-1-carbonyl)phenyl)quinoline-8-sulfonamide] here?
A: Its AC50 is under 100 nM.

Q: How did the AC50 turn out when `O=C(c1ccc(NS(=O)(=O)c2cccc3cccnc23)c(OC(F)(F)F)c1)N1CCN(Cc2ccn[nH]2)CC1` [Compound 382, N-(4-(4-((1H-pyrazol-5-yl)methyl)piperazine-1-carbonyl)-2-(trifluoromethoxy)phenyl)quinoline-8-sulfonamide] was run?
A: The AC50 was 100 to 500 nM.

Q: With `O=C(c1ccc(NS(=O)(=O)c2cccc3cccnc23)c(OC(F)(F)F)c1)N1CCN(Cc2cncc(F)c2)CC1` [Compound 300] as the molecule, how does the AC50 read?
A: The AC50 was 100 to 500 nM.

Q: For `O=C(c1ccc(NS(=O)(=O)c2cccc3cccnc23)cc1)N1CCN(C(c2ccccc2)C(F)(F)F)CC1` (stereo not drawn) [Compound 358, N-(4-(4-(2,2,2-trifluoro-1-phenylethyl)piperazine-1-carbonyl)phenyl)quinoline-8-sulfonamide], which AC50 is on record?
A: Its AC50 is under 100 nM.

Q: For `O=C(c1ccc(NS(=O)(=O)c2cccc3cccnc23)cc1)N1CCN(C(=O)c2ccncc2F)CC1` [Compound 317, N-(4-(4-(3-fluoroisonicotinoyl)piperazine-1-carbonyl)phenyl)quinoline-8-sulfonamide], which AC50 is on record?
A: The AC50 was under 100 nM.

Q: For `COc1cc(C(=O)N2CCN(C(=O)c3cccc(F)c3F)CC2)ccc1NS(=O)(=O)c1cccc2cccnc12` [Compound 318, N-(4-(4-(2,3-difluorobenzoyl)piperazine-1-carbonyl)-2-methoxyphenyl)quinoline-8-sulfonamide], which AC50 is on record?
A: The AC50 was 100 to 500 nM.

Q: How did the AC50 turn out when `O=C(c1ccc(NS(=O)(=O)c2cccc3cccnc23)cc1)N1CCN(C2(c3ccc(F)cc3)CC2)CC1` [Compound 399, N-(4-(4-(1-(4-fluorophenyl)cyclopropyl)piperazine-1-carbonyl)phenyl)quinoline-8-sulfonamide] was run?
A: The AC50 was under 100 nM.

Q: For `O=C(c1ccc(NS(=O)(=O)c2cccc3cccnc23)c(C(F)(F)F)c1)N1CCN(CC2CCCO2)CC1` (stereo not drawn) [Compound 329, N-(4-(4-((tetrahydrofuran-2-yl)methyl)piperazine-1-carbonyl)-2-(trifluoromethyl)phenyl)quinoline-8-sulfonamide], which AC50 is on record?
A: The AC50 was 1000 to 20000 nM.

Q: How did the AC50 turn out when `COc1ccc(CN2CCN(C(=O)c3ccc(NS(=O)(=O)c4cccc5cccnc45)c(OC(F)(F)F)c3)CC2)cc1` [Compound 310, N-(4-(4-(4-methoxybenzyl)piperazine-1-carbonyl)-2-(trifluoromethoxy)phenyl)quinoline-8-sulfonamide] was run?
A: Its AC50 is 100 to 500 nM.

Q: With `O=C(O[C@@H]1CCOC1)N1CCN(C(=O)c2ccc(NS(=O)(=O)c3cccc4cccnc34)c(OC(F)(F)F)c2)CC1` [Compound 311] as the molecule, how does the AC50 read?
A: The AC50 was 1000 to 20000 nM.

Q: How did the AC50 turn out when `COc1ncccc1CN1CCN(C(=O)c2ccc(NS(=O)(=O)c3cccc4cccnc34)c(OC(F)(F)F)c2)CC1` [Compound 368, N-(4-(4-((2-methoxypyridin-3-yl)methyl)piperazine-1-carbonyl)-2-(trifluoromethoxy)phenyl)quinoline-8-sulfonamide] was run?
A: Its AC50 is 100 to 500 nM.

Q: For `O=C(c1ccc(NS(=O)(=O)c2cccc3cccnc23)c(OC(F)(F)F)c1)N1CCN(Cc2ccc(F)cc2)CC1` [Compound 337, N-(4-(4-(4-fluorobenzyl)piperazine-1-carbonyl)-2-(trifluoromethoxy)phenyl)quinoline-8-sulfonamide], which AC50 is on record?
A: The AC50 was 1000 to 20000 nM.

Q: With `COc1cc(C(=O)N2CCN(C(=O)c3csnn3)CC2)ccc1NS(=O)(=O)c1cccc2cccnc12` [Compound 321, N-(4-(4-(1,2,3-thiadiazole-4-carbonyl)piperazine-1-carbonyl)-2-methoxyphenyl)quinoline-8-sulfonamide] as the molecule, how does the AC50 read?
A: Its AC50 is 100 to 500 nM.

Q: Which AC50 does the source give for `CC(c1cc(F)c(F)c(F)c1)N1CCN(C(=O)c2ccc(NS(=O)(=O)c3cccc4cccnc34)cc2)CC1` (stereo not drawn) [Compound 398, N-(4-(4-(1-(3,4,5-trifluorophenyl)ethyl)piperazine-1-carbonyl)phenyl)quinoline-8-sulfonamide] here?
A: The AC50 was 1000 to 20000 nM.

Q: With `O=C(c1ccc(NS(=O)(=O)c2cccc3cccnc23)cc1F)N1CCN(Cc2ccc(Cl)c(F)c2)CC1` [Compound 422, N-(4-(4-(4-chloro-3-fluorobenzyl)piperazine-1-carbonyl)-3-fluorophenyl)quinoline-8-sulfonamide] as the molecule, how does the AC50 read?
A: Its AC50 is 100 to 500 nM.

Q: How did the AC50 turn out when `O=C(c1ccc(NS(=O)(=O)c2cccc3cccnc23)cc1)N1CCN(C(=O)c2ccno2)CC1` [Compound 365, N-(4-(4-(isoxazole-5-carbonyl)piperazine-1-carbonyl)phenyl)quinoline-8-sulfonamide] was run?
A: The AC50 was under 100 nM.
